Reference: patent US9781930B2, “3′-substituted-abscisic acid derivatives” (Valent BioSciences Corporation, priority 2014, dated 2017)

Test system: Arabidopsis thaliana seed
Experiment: Seed germination inhibition assay for testing Examples 1-28 and 47-50
Type: in vivo
Set-up: key to Arabidopsis seed germination inhibition potency: + + + +: The other derivatives were scored by potency relative to S-ABA.; (S)-ABA potency = + + +.; + +: The other derivatives were scored by potency relative to S-ABA.; ++: The other derivatives were scored by potency relative to S-ABA.; +: The other derivatives were scored by potency relative to S-ABA.; −− = no effect
Conditions: for Arabidopsis seed germination inhibition potency: 0.01-10.0 ppm in 96-well plates, scored on day 7, relative to (S)-ABA; for germination inhibition potency compared to (S)-ABA (in words): Arabidopsis seed germination
Experimental: Seed Germination Inhibition Assay for Testing Examples 1-28 and 47-50 To determine the germination inhibition potency of the (S)-ABA derivatives, germination assays were performed with the model plant Arabidopsis thaliana. Arabidopsis seed was sterilized by shaking for five minutes in 200-proof ethanol, and followed by shaking for five minutes in a 10% bleach solution. The seeds were then washed five times in sterile, distilled, de-ionized water and suspended in 0.1% phytoagar. The tubes containing the seeds were wrapped in aluminum foil and stratified at 4° C. for two days. All compounds were tested at eight concentrations of 0 (DMSO control), 0.01, 0.03, 0.1, 0.3, 1.0, 3.0, and 10.0 ppm in 96-well plates. Each plate contained eight replicates of each concentration of the test compound and eight replicates of (S)-ABA at 0.1 ppm as the positive control. As an additional set of controls, each run of the assay also contained one plate dosed with (S)-ABA covering a range of concentrations up to 10 ppm. For each compound, 10× stock solutions corresponding to each of the tested concentrations were prepared in distilled and de-ionized water containing 5% DMSO. The stock test solution (10 μL) was added to each well according to the scheme described above, and 90 μL of ½× Murashige and Skoog media containing 1.2% Bactoagar was then added to each well (final DMSO concentration was 0.5%). When the media solidified, ten to fifteen sterile stratified Arabidopsis seeds were distributed into each well using a repeat pipettor. The plates were sealed with surgical tape and placed in a growth chamber running diurnal cycles of 12 hours of light at 24° C. and 12 hours of darkness at 19° C. The plates were scanned on days 3 through 7, and scored on day 7. The 3′-substituted-(S)-ABA derivatives were scored on ability to inhibit germination relative to the potency of (S)-ABA. The results are summarized below in “Table 1: Arabidopsis seed germination inhibition activity of (S)-ABA derivatives.”

Row | SMILES | Arabidopsis seed germination inhibition potency | germination inhibition potency compared to (S)-ABA (in words)
1 | COc1cccc(CC2=C(C)[C@](O)(/C=C/C(C)=C\C(=O)O)C(C)(C)CC2=O)c1 [Example 26, (2Z,4E)-5-((S)-3-(3-methoxybenzyl)-1-hydroxy-2,6,6-trimethyl-4-oxocyclohex-2-en-1-yl)-3-methylpenta-2,4-dienoic acid] | −− | 
2 | CC1=C(Cc2ccc(C)cc2)C(=O)CC(C)(C)[C@@]1(O)/C=C/C(C)=C\C(=O)O [Example 18, (2Z,4E)-5-((S)-1-hydroxy-2,6,6-trimethyl-3-(4-methylbenzyl)-4-oxocyclohex-2-en-1-yl)-3-methylpenta-2,4-dienoic acid] | −− | 
3 | CCC#CCC1=C(C)[C@](O)(/C=C/C(C)=C\C(=O)O)C(C)(C)CC1=O [Example 48, (2Z,4E)-5-((S)-1-hydroxy-2,6,6-trimethyl-4-oxo-3-(pent-2-yn-1-yl)cyclohex-2-en-1-yl)-3-methylpenta-2,4-dienoic acid] | + | 
4 | CCC1=C(C)[C@](O)(/C=C/C(C)=C\C(=O)O)C(C)(C)CC1=O [Example 2, (2Z,4E)-5-((S)-3-ethyl-1-hydroxy-2,6,6-trimethyl-4-oxocyclohex-2-en-1-yl)-3-methylpenta-2,4-dienoic acid] | + + + | just as effective as (S)-ABA
5 | CC1=C(Cc2ccc(F)cc2)C(=O)CC(C)(C)[C@@]1(O)/C=C/C(C)=C\C(=O)O [Example 21, (2Z,4E)-5-((S)-3-(4-fluorobenzyl)-1-hydroxy-2,6,6-trimethyl-4-oxocyclohex-2-en-1-yl)-3-methylpenta-2,4-dienoic acid] | −− | 
6 | CC1=C(CC(=O)O)C(=O)CC(C)(C)[C@@]1(O)/C=C/C(C)=C\C(=O)O [Example 10, (2Z,4E)-5-((S)-3-(carboxymethyl)-1-hydroxy-2,6,6-trimethyl-4-oxocyclohex-2-en-1-yl)-3-methylpenta-2,4-dienoic acid] | −− | 
7 | CC1=C(Cc2ccccc2Cl)C(=O)CC(C)(C)[C@@]1(O)/C=C/C(C)=C\C(=O)O [Example 24, (2Z,4E)-5-((S)-3-(2-chlorobenzyl)-1-hydroxy-2,6,6-trimethyl-4-oxocyclohex-2-en-1-yl)-3-methylpenta-2,4-dienoic acid] | −− | 
8 | C#CCC1=C(C)[C@](O)(/C=C/C(C)=C\C(=O)O)C(C)(C)CC1=O [Example 5, (2Z,4E)-5-((S)-1-hydroxy-2,6,6-trimethyl-4-oxo-3-(prop-2-yn-1-yl)cyclohex-2-en-1-yl)-3-methylpenta-2,4-dienoic acid] | + + + + | more potent than (S)-ABA
9 | CC1=C(Cc2cccc3ccccc23)C(=O)CC(C)(C)[C@@]1(O)/C=C/C(C)=C\C(=O)O [Example 15, (2Z,4E)-5-((S)-1-hydroxy-2,6,6-trimethyl-3-(naphthalen-1-ylmethyl)-4-oxocyclohex-2-en-1-yl)-3-methylpenta-2,4-dienoic acid] | −− | 
10 | CC1=C(Cc2ccc(F)c(F)c2)C(=O)CC(C)(C)[C@@]1(O)/C=C/C(C)=C\C(=O)O [Example 22, (2Z,4E)-5-((S)-3-(3,4-difluorobenzyl)-1-hydroxy-2,6,6-trimethyl-4-oxocyclohex-2-en-1-yl)-3-methylpenta-2,4-dienoic acid] | −− | 
11 | CC1=C(Cc2ccccc2)C(=O)CC(C)(C)[C@@]1(O)/C=C/C(C)=C\C(=O)O [Example 13, (2Z,4E)-5-((S)-3-benzyl-1-hydroxy-2,6,6-trimethyl-4-oxocyclohex-2-en-1-yl)-3-methylpenta-2,4-dienoic acid] | −− | 
12 | CC1=C(Cc2cc(F)cc(F)c2)C(=O)CC(C)(C)[C@@]1(O)/C=C/C(C)=C\C(=O)O [Example 23, (2Z,4E)-5-((S)-3-(3,5-difluorobenzyl)-1-hydroxy-2,6,6-trimethyl-4-oxocyclohex-2-en-1-yl)-3-methylpenta-2,4-dienoic acid] | −− | 
13 | CC1=C(Cc2ccc3ccccc3c2)C(=O)CC(C)(C)[C@@]1(O)/C=C/C(C)=C\C(=O)O [Example 14, (2Z,4E)-5-((S)-1-hydroxy-2,6,6-trimethyl-3-(naphthalen-2-ylmethyl)-4-oxocyclohex-2-en-1-yl)-3-methylpenta-2,4-dienoic acid] | −− | 
14 | C=CCC1=C(C)[C@](O)(/C=C/C(C)=C\C(=O)O)C(C)(C)CC1=O [Example 4, (2Z,4E)-5-((S)-3-allyl-1-hydroxy-2,6,6-trimethyl-4-oxocyclohex-2-en-1-yl)-3-methylpenta-2,4-dienoic acid] | + + + | just as effective as (S)-ABA
15 | COc1cc([N+](=O)[O-])ccc1CC1=C(C)[C@](O)(/C=C/C(C)=C\C(=O)O)C(C)(C)CC1=O [Example 27, (2Z,4E)-5-((S)-1-hydroxy-3-(2-methoxy-4-nitrobenzyl)-2,6,6-trimethyl-4-oxocyclohex-2-en-1-yl)-3-methylpenta-2,4-dienoic acid] | −− | 
16 | CC1=C(Cc2nc3ccccc3s2)C(=O)CC(C)(C)[C@@]1(O)/C=C/C(C)=C\C(=O)O [Example 28, (2Z,4E)-5-((S)-3-(benzo[d]thiazol-2-ylmethyl)-1-hydroxy-2,6,6-trimethyl-4-oxocyclohex-2-en-1-yl)-3-methylpenta-2,4-dienoic acid] | −− | 
17 | CC1=C(Cc2cccc(F)c2)C(=O)CC(C)(C)[C@@]1(O)/C=C/C(C)=C\C(=O)O [Example 20, (2Z,4E)-5-((S)-3-(3-fluorobenzyl)-1-hydroxy-2,6,6-trimethyl-4-oxocyclohex-2-en-1-yl)-3-methylpenta-2,4-dienoic acid] | −− | 
18 | CCC1=C(C)[C@](O)(/C=C/C(C)=C\C(=O)OC)C(C)(C)CC1=O [Example 1, (2Z,4E)-methyl 5-((S)-3-ethyl-1-hydroxy-2,6,6-trimethyl-4-oxocyclohex-2-en-1-yl)-3-methylpenta-2,4-dienoate] | + + + | just as effective as (S)-ABA
19 | CC1=C(CC(=O)OC(C)(C)C)C(=O)CC(C)(C)[C@@]1(O)/C=C/C(C)=C\C(=O)O [Example 9, (2Z,4E)-5-((S)-3-(2-(tert-butoxy)-2-oxoethyl)-1-hydroxy-2,6,6-trimethyl-4-oxocyclohex-2-en-1-yl)-3-methylpenta-2,4-dienoic acid] | −− | 
20 | CC1=C(C/C=C/c2ccccc2)C(=O)CC(C)(C)[C@@]1(O)/C=C/C(C)=C\C(=O)O [Example 50, (2Z,4E)-5-((S)-3-cinnamyl-1-hydroxy-2,6,6-trimethyl-4-oxocyclohex-2-en-1-yl)-3-methylpenta-2,4-dienoic acid] | + | 
21 | CCCCCC1=C(C)[C@](O)(/C=C/C(C)=C\C(=O)O)C(C)(C)CC1=O [Example 8, (2Z,4E)-5-((S)-1-hydroxy-2,6,6-trimethyl-4-oxo-3-pentylcyclohex-2-en-1-yl)-3-methylpenta-2,4-dienoic acid] | −− | 
22 | CC1=C(CCCCO)C(=O)CC(C)(C)[C@@]1(O)/C=C/C(C)=C\C(=O)O [Example 7, (2Z,4E)-5-((S)-1-hydroxy-3-(4-hydroxybutyl)-2,6,6-trimethyl-4-oxocyclohex-2-en-1-yl)-3-methylpenta-2,4-dienoic acid] | −− | 
23 | CCCCC1=C(C)[C@](O)(/C=C/C(C)=C\C(=O)O)C(C)(C)CC1=O [Example 6, (2Z,4E)-5-((S)-3-butyl-1-hydroxy-2,6,6-trimethyl-4-oxocyclohex-2-en-1-yl)-3-methylpenta-2,4-dienoic acid] | + | 
24 | CC1=C(C/C=C/C(=O)O)C(=O)CC(C)(C)[C@@]1(O)/C=C/C(C)=C\C(=O)O [Example 49, (2Z,4E)-5-((S)-3-((E)-3-carboxyallyl)-1-hydroxy-2,6,6-trimethyl-4-oxocyclohex-2-en-1-yl)-3-methylpenta-2,4-dienoic acid] | −− | 
